Assay [1] addresses T1, human α2c-AR (Homo sapiens, UniProt P18825).
T1 construct: expressed in transfected cells
T1 sequence (P18825 1-462): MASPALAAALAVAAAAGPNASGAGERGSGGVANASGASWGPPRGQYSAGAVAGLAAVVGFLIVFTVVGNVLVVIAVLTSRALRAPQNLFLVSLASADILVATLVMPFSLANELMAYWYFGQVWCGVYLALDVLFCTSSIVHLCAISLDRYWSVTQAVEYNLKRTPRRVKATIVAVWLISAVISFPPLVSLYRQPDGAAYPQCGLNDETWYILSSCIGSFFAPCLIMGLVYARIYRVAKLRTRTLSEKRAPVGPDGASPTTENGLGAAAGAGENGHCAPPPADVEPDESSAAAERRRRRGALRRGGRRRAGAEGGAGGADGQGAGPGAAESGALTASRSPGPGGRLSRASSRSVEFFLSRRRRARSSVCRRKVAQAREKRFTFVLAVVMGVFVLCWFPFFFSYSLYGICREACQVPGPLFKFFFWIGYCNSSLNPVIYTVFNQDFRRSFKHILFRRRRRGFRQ
The assay is described as follows: [3H]Rauwolscine equilibrium competition binding, human α2c-AR expressed in CHO cells.

Assay [2] deals with T2, human α1a-AR (Homo sapiens, UniProt P35348).
T2 construct: expressed in transfected cells; host or cells: HEK cells
T2 sequence (P35348 1-466): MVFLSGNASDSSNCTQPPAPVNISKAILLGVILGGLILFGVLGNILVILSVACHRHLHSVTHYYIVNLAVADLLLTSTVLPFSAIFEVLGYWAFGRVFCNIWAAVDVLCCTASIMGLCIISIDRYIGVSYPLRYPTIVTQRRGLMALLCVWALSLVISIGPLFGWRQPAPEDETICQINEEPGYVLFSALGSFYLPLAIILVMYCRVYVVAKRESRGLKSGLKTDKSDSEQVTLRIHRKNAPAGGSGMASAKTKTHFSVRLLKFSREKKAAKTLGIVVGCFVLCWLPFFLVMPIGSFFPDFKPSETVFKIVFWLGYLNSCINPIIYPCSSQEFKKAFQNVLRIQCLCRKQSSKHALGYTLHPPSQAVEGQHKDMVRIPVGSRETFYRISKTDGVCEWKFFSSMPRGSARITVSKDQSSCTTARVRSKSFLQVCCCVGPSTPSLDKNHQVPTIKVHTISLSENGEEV
The assay can be described thus: [3H]prazosin equilibrium competition binding, human α1a-AR expressed in HEK cells.

For assay [3], the target named is T3, human α1d-AR (Homo sapiens, UniProt P25100).
T3 construct: expressed in transfected cells; host or cells: HEK cells
T3 sequence (P25100 1-572): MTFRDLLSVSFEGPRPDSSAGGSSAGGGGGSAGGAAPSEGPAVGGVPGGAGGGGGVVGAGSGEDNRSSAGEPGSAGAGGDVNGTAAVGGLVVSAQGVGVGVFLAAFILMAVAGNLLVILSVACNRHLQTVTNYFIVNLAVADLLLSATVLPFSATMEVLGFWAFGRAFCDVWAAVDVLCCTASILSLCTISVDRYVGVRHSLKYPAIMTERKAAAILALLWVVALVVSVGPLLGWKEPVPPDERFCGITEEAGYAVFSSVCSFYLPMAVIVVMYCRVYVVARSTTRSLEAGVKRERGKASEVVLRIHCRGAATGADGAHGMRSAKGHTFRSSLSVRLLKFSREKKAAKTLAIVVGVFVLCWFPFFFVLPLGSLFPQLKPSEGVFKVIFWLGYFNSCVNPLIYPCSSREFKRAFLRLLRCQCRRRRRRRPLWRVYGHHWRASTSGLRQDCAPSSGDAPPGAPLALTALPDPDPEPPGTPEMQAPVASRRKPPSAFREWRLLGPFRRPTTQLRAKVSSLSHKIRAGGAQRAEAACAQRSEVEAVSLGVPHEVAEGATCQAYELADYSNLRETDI
The assay is described as follows: [3H]prazosin equilibrium competition binding, human α1d-AR expressed in HEK cells.

Assay [4] concerns the target T4, human α2a-AR (Homo sapiens, UniProt P08913).
T4 construct: expressed in transfected cells
T4 sequence (P08913 1-465): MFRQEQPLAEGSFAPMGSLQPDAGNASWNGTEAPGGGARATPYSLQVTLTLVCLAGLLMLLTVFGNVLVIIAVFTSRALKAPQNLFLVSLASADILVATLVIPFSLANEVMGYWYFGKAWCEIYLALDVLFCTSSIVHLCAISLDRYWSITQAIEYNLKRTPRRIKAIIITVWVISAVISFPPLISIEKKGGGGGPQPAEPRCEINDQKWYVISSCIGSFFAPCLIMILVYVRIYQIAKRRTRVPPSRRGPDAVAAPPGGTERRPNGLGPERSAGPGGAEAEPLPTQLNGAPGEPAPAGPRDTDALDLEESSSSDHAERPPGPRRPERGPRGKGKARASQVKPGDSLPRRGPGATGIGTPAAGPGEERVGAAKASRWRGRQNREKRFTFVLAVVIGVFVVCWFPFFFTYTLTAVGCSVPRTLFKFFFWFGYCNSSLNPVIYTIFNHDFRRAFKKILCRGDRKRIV
The assay can be described thus: [3H]Rauwolscine equilibrium competition binding, human α2a-AR expressed in CHO cells. Particulars: human α2a-AR in CHO cells.

Assay [5] concerns the target T4, human α2a-AR. The assay can be described thus: Reversal of medetomidine mediated inhibition of forskolin-induced cAMP (6 CRE-LUC reporter), CHO cells expressing α2a-AR. Particulars: reversal of medetomidine (10 nM) effect on forskolin (5 μM) cAMP response; mean ± SEM of n=3-4; read-out: Effective Concentration-50 (nM ± SEM) α2a-AR. The class given is cell-based. As for the experimental part:
(§1) The changes in cAMP levels were assessed by luciferase activities using a 6 CRE-LUC reporter gene bioassay.

The target in assay [6] is T1, human α2c-AR. The assay is described as follows: Reversal of medetomidine mediated inhibition of forskolin-induced cAMP (6 CRE-LUC reporter), CHO cells expressing α2c-AR. The class given is cell-based. As for the experimental part:
as §1

In assay [7] the target is T5, human α1b-AR (Homo sapiens, UniProt P35368).
T5 construct: expressed in transfected cells; host or cells: HEK cells
T5 sequence (P35368 1-520): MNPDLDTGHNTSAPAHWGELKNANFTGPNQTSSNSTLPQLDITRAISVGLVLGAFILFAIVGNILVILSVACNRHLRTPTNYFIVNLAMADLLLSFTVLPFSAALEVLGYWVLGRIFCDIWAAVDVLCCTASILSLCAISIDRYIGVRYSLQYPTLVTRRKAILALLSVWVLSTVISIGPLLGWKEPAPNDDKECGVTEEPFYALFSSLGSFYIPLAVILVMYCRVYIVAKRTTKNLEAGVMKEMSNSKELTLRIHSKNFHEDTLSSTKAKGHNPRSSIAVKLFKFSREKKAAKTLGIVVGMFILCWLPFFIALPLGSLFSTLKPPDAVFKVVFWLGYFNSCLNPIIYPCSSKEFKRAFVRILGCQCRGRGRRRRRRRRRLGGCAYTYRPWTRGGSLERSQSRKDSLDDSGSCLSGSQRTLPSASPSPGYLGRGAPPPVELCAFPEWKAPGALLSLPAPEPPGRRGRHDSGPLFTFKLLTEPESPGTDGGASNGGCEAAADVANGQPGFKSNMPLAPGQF
The assay is described as follows: [3H]prazosin equilibrium competition binding, human α1b-AR expressed in HEK cells.

Assay [8] concerns the target T6, human α2b-AR (Homo sapiens, UniProt P18089).
T6 construct: expressed in transfected cells
T6 sequence (P18089 1-450): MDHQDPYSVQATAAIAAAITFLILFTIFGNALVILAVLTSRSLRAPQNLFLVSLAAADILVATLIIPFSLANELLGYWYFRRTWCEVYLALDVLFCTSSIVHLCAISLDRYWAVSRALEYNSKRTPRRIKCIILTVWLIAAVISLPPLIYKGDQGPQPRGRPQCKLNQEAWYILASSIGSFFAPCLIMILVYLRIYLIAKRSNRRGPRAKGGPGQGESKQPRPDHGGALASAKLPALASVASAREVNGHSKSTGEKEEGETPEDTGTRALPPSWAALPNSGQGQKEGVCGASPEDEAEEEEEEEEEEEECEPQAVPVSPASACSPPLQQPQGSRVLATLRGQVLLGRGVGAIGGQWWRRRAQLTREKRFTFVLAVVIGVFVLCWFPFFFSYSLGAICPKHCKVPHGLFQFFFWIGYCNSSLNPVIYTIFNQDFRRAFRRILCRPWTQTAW
The assay can be described thus: [3H]Rauwolscine equilibrium competition binding, human α2b-AR expressed in CHO cells.

Where two headings read alike, the source gives them in different places. Where only a bound is given, the exact number is not on record here.

Experimental findings from US6638943B2 (The University of Tennessee Research Foundation, priority 2001, dated 2003) are described below.

Consider `O=C(NCCCNC(=O)[C@@H]1[C@H]2C[C@H]3c4[nH]c5ccccc5c4CCN3C[C@@H]2CC[C@@H]1O)[C@@H]1[C@H]2C[C@H]3c4[nH]c5ccccc5c4CCN3C[C@@H]2CC[C@@H]1O` [Compound 3b], for which the Ki in assay [1] was 5.75 nM; in assay [2], 17000 nM; in assay [3], 7760 nM; in assay [4] (Table 2, mean ± SEM of n = 4-6, read-out: pKi α2a-AR (converted)), 182 nM; in assay [4] ([3H]rauwolscine 2.54 nM, mean ± SEM of four to nine experiments, read-out: Ki = SEM (nM) α2a-AR), 52 ± 3.2 nM; in assay [7], 5750 nM. Also, the Ki in assay [8] (Table 2, mean ± SEM of n = 4-6, read-out: pKi α2b-AR (converted)) is 2040 nM; in assay [8] ([3H]rauwolscine 2.54 nM, mean ± SEM of four to nine experiments, read-out: Ki = SEM (nM) α2b-AR) it was 990 ± 85.2 nM. Also, the “pKi α2c-AR” value in assay [1] (Table 3, CHO cells, [3H]rauwolscine, mean ± SEM of n = 4-6) amounted to 8.24 ± 0.07. Further, the “binding affinity for α2c-AR greater than on the α1-AR subtypes” value in assay [1] (from Table 3) is no less than 1000 fold. Besides, the EC50 worked out at 660 ± 210 nM in assay [5] and 15.8 ± 5.2 nM in assay [6]. Also, the “more potent at inhibiting the action of medetomidine on α2c-AR versus α2a-AR” value in assay [6] (from Table 4) was found to be 42 fold.
